Molecules are shown by their SMILES. *1 amine or outer side, *2 acyl side, *3 side chain or, on linkers, in order; H or OH if unused. Where a SMILES comes first, the peptide text is derived from it. [ ]: non-standard residue; d: D form. X1 = O=C(c1ccc(-c2ccc(N[*:1])cn2)nc1)[*:2]; βAla = NCCC(=O)O A value given as a limit tells only on which side of the number the result lay.

The subject of assay [1] is NCI/ADR-RES cells. Briefly: ICP-MS internalization study (intracellular Cu accumulation). In kind it is cell-based. The note with it: 1 µM compound, 48 h, metallopeptides 1 eq. cyclopeptide + 1 eq. Cu(II). As to the method: To evaluate the ability of the Cu(II) metallopeptide systems to internalize in cancer cells, ICP-MS studies were performed in NCI/ADR-RES cells after 48 h of incubation with cyclopeptides 1 and 2, as well as their corresponding 1/Cu(II) and 2/Cu(II) metallopeptide derivatives formed by mixing each cyclopeptide with 1 equiv Cu(II), and using CuCl2·2H2O both as a Cu(II) source and a control.
7.1. General methods and materials
ICP Measurements were conducted employing an Agilent 7900 ICP-MS system (Agilent Technologies, Tokyo, Japan). The sample introduction system was comprised of an autosampler, a double-pass spray chamber with Peltier system, a glass concentric nebulizer (MicroMist low-flow nebulizer, Glass Expansion, West Melbourne, Australia), and a quartz torch.
Quantification of copper concentrations was achieved using Agilent ICP-MS MassHunter 5.1, (Version D.01.01 Agilent Technologies, Tokyo, Japan). The parameters for the ICP-MS device were as follows: RF Power, 1550 W; Sample Depth, 8; Carrier Gas, 1.1 L/min; Nebulizer Pump […]
Roswell Park Memorial Institute 1640 medium (RPMI), fetal bovine serum (FBS), penicillin, and streptomycin were purchased from Invitrogen Thermo Fisher.
Ovarian tumour NCI/ADR-RES cells, obtained from the European Collection of Authenticated Cell Cultures (ECACC), were cultured at 37 °C in a 5% CO2 atmosphere in RPMI medium containing 10% FBS and supplemented with 50 U/mL penicillin and 50 U/mL streptomycin, in 75 cm2 cell culture flasks. All cell experiments were performed at 37 °C in a 5% CO 2 atmosphere with this modified RPMI, referred as “medium” or “culture medium”.
7.3. […]
The culture medium was then replaced with 3 mL of fresh medium containing 1 µM of the compound [Cu(II) (CuCl₂·2H₂O), cyclopeptide ( 1 or 2), or metallopeptide system [1/Cu(II) or 2/Cu(II); 1 eq. cyclopeptide + 1 eq. […] Lysates were digested at 95 °C overnight, diluted with 1% HNO₃ to a final volume of 5 mL, and analyzed by ICP-MS. The Cu(II) content in the culture medium (3 mL) was also measured using the same technique, yielding a value of 41.46 ng. […]

Assay [2] has as its system NCI/ADR-RES cells. Briefly: Intracellular ROS generation (ROS Assay Stain 1X). Conditions: 100 μM compound with 125 μM H2O2, 1-5 h and 24 h, 1/Cu(II) equimolar. In kind it is cell-based. As to the method:
Measurement of intracellular ROS levels in NCI/ADR-RES cells treated with Cu(II) ions, cyclopeptide 1, or the 1/Cu(II) metallopeptide system confirmed a time-dependent increase in the level of ROS generation. In short, after 24 h of incubation, cells were stained with ROS Assay Stain 1× and treated with 100 μM Cu(II) (CuCl2·2H2O), cyclopeptide 1, or 1/Cu(II), along with 125 μM H2O2, and fluorescence was recorded (λex = 495/λem = 520 nm) every hour for the first 5 h and again at 24 h. The experiment with the metallopeptide system was conducted by using equimolar amounts of cyclopeptide 1 and Cu(II) to prevent an excess of free copper in the medium. […] The cytotoxicity of the metallopeptide systems appears to be closely linked to their ability to enhance intracellular oxidative stress via increased ROS production, likely driven by Cu(II) accumulation within the cells.
9.2. […]
NCI/ADR-RES cells were seeded in a 96 well plate (Thermo Scientific 165305) at a density of 2,5 x 10^5 cells/ml. […] The fluorescence was measured in a microplate reader every hour for the first 5 hours, and again at 24 hours after the addition of the compounds (λex= 495 nm / λem= 520 nm). […]
Figure S15. […] Fluorescence (λex= 495 nm / λem= 520 nm) was recorded every hour for the first 5 hours, and again at 24 hours after the addition of the compounds to assess intracellular ROS generation. […]

For the next assay, the system named is SF-268 (human glioma). The note with it: 72 h.
Assay [3] concerns NCI/ADR-RES (doxorubicin resistant ovarian carcinoma). Conditions: 48 h.
Excerpt: (§1) IC50 is the concentration at which 50% growth inhibition is obtained and E max represents the efficacy of the compound at its maximum concentration, expressed as the maximum % cell inhibition achieved by the compound (see Section S6 and Figure S8 of the Supporting Information).
(§2) General method: cell lines and grown conditions
(§3) Non-small lung carcinoma NCI-H460, human colon carcinoma HCT-116, human glioma SF-268
(§4) and doxorubicin-resistance human mamma carcinoma NCI/ADR-RES cell lines, as well as
(§5) Eagle’s Minimal Essential Medium (EMEM) and RPMI1640 were purchased from the American Tissue Culture Collection (ATCC). Frozen cells were thawed in a 75 cm2 cell culture flask in RPMI
(§6) supplemented with 2 mM L-glutamine and 10% FBS and maintained at 37 °C in a 5% CO2
(§7) The inhibition of cell proliferation induced by the samples [1/Cu(II), 1 eq. cyclopeptide 1/3 eq. of
(§8) Cu(II); 2/Cu(II), 1 eq. cyclopeptide 2/5 eq. of Cu(II)]‚ was carried out by using MTT method for
(§9) HCT-116, NCI/ADR-RES and NCI-H460 cell lines. SF-268 cell growth inhibition induced by the
(§10) samples was assessed using a system based on crystal violet cell staining and subsequent
(§11) acetylation. Cells were seeded in a 96-well microplate (5000 cells/well for HCT-116, 10000
(§12) cells/well for SF-268 and 15000 cells/well for NCI/ADR-RES and NCI-H460 cell lines) in 100 μl
(§13) of growth medium and maintained at 37 °C for 24 h.
(§14) Then growth medium was replaced by fresh medium containing different concentrations of the
(§15) samples to be assayed and maintained at 37 °C in a 5% CO2 atmosphere for 48 h. After this
(§16) time, 10 μL MTT (5 mg/ml in PBS) were added to each well and maintained for 4 h at 37 °C in a
(§17) 5% CO2 atmosphere. Then 100 μL of 10% SDS in 0.01 M HCl were added to each well an
(§18) incubated for 12-14 h under the same experimental conditions. Absorbance due to formation
(§19) was detected in a Tecan infinity M1000 Pro reader using a wavelength of 595 nm. All assays
were performed with triplicate points.
b) Crystal violet cell staining
(§20) The samples dissolved in water were added, maintaining the same proportion of water in each
(§21) well (10%). After 72 h (at 37°C and in an atmosphere of 5% CO 2/95% air), the cells were fixed to
(§22) the plate with 10 μL of 11% glutaraldehyde solution, kept under agitation at room temperature,
(§23) for 15 minutes. Once fixed, the medium was removed and the cells were washed 3-4 times with
(§24) distilled water, followed by staining of the cells with 100 μL of a 0.1% crystal violet solution. This
(§25) solution was prepared by diluting 0.1g of crystal violet in 100 mL of buffer composed of 200 mM
(§26) phosphoric acid, 200 mM formic acid and 200 mM 2-(N-morpholino)-ethane sulphonic acid
(§27) (MES) at pH 6. The plate was kept shaking at room temperature for 15 minutes. The dye was
(§28) removed, washed 3-4 times with distilled water and dried. 100 μL of 10% acetic acid was then
(§29) added and kept under agitation for 15 minutes, at room temperature, so that the staining was
(§30) homogeneous in all wells. Finally, an absorbance reading of the plates was performed at a
(§31) wavelength of 595 nm (Tecan M1000 Infinite Pro). The assay was performed with triplicate points.
(§32) Data were expressed as the growth inhibition percentage calculated in basis on the equation: %
(§33) inhibition= 100 – [(AO × 100) / AT]. Where AT is the measured absorbance in wells containing
(§34) compounds and AO is the absorbance measured in blank wells (cells with medium and vehicle).
(§35) The inhibitory potency of compounds was calculated by constructing concentration-% growth
(§36) inhibition curves, and extrapolating IC50 values (concentration of compound that inhibits cells
Assay [4] concerns NCI-H460 (lung carcinoma). The note with it: 48 h.
Excerpt: as §1, §2, §3, §4, §5, §6, §7, §8, §9, §10, §11, §12, §13, §14, §15, §16, §17, §18, §19
were performed with triplicate points.
b) Crystal violet cell staining
as §20, §21, §22, §23, §24, §25, §26, §27, §28, §29, §30, §31, §32, §33, §34, §35, §36
Assay [5] deals with nontransformed lung fibroblast (MRC-5). The note with it: 48 h.
Excerpt: as §1, §2, §3, §4, §5, §6, §7, §8, §9, §10, §11, §12, §13, §14, §15, §16, §17, §18, §19
were performed with triplicate points.
b) Crystal violet cell staining
as §20, §21, §22, §23, §24, §25, §26, §27, §28, §29, §30, §31, §32, §33, §34, §35, §36

Excerpt for SF-268 (human glioma): as §1, §2, §3, §4, §5, §6, §7, §8, §9, §10, §11, §12, §13, §14, §15, §16, §17, §18, §19
were performed with triplicate points.
b) Crystal violet cell staining
as §20, §21, §22, §23, §24, §25, §26, §27, §28, §29, §30, §31, §32, §33, §34, §35, §36

For the molecule `N=C(N)NCCC[C@@H]1NC(=O)c2ccc(nc2)-c2ccc(cn2)NC(=O)CCNC(=O)[C@H](CCCNC(=N)N)NC(=O)[C@H](CCCNC(=N)N)NC(=O)[C@H](CCCNC(=N)N)NC(=O)c2ccc(nc2)-c2ccc(cn2)NC(=O)CCNC(=O)[C@H](CCCNC(=N)N)NC(=O)[C@H](CCCNC(=N)N)NC1=O` [compound 1, cyclo-(βAlaBpy-Arg3)2] (cyclo([X1]RRR[βAla][X1]RRR[βAla])), the “intracellular Cu(II) accumulation (ICP-MS)” value in the assay on NCI/ADR-RES cells [1] is “notably lower than that of the metallopeptide systems”. Besides, the “intracellular ROS levels (fluorescence)” value in the assay on NCI/ADR-RES cells [2] is “also promotes ROS generation, albeit to a lesser extent”. Moreover, the “E max (maximum % cell inhibition)” value with SF-268 (human glioma) stood at 45 ± 2%; in assay [3] it was 10 ± 2%; in assay [4] it was 32 ± 2%; in assay [5] it was 24 ± 2%. Also, the IC50 (in the assay on SF-268 (human glioma); in assay [3]; in assay [4]; in assay [5]) was greater than 100 µM each time.

The values above are taken from article PMC12128024, “Copper(II) Cyclopeptides with High ROS-Mediated Cytotoxicity” (Bioconjugate Chemistry, 2025).
